Literature values in US20120209535A1, “METHOD FOR GENERATING BIOMARKER REFERENCE PATTERNS” (BASF Plant Science Company GmbH, priority 2009, published 2012).
Read-outs that look alike come from different tables or passages of the source.

How the values were obtained:
liver = settings: known effect
[1] = known effect
bladder = settings: known effect

SMILES	lipid accumulation in the liver (liver)	liver carcinogen (liver)	liver enzyme inducer (liver)	immunosuppressant [1]	peroxisome proliferation effect (peroxisome proliferation; expert knowledge and/or literature information)	peroxisome proliferation effect (peroxisome proliferation)	bladder carcinogen (bladder)
CC(=O)Nc1cccc2c1-c1ccccc1C2 [4-acetylaminofluorene]	lipid accumulation in the liver	no liver carcinogen	weak liver enzyme inducer	immunosuppressant	–	–	–
Cc1cc(Cl)ccc1O[C@@H](C)C(=O)O [mecoprop-p]	–	–	–	–	have the abovementioned effect	–	–
CCCCOC(=O)c1ccccc1C(=O)OCCCC [dibutyl phthalate]	–	–	–	–	–	have the abovementioned effect	–
CC(=O)Nc1ccc2c(c1)Cc1ccccc1-2 [2-Acetylaminofluorene]	–	liver carcinogen	potent liver enzyme inducer	immunosuppressant	–	–	bladder carcinogen
